# According to patent US10676504B2 (Colorado State University Research Foundation, priority 2015, dated 2020):
# Where two headings read alike, the source gives them in different places.
# Key:
# melanoma cell lines [1] = assay: NCI 60 one-dose screen; format: cell-based
# [2] = test system: ovarian cancer cell lines
# Text: (§1) All compounds submitted for screening were initially tested at a single high dose (10^-5 M) against the fill NCI 60 cell panel. Only compounds which satisfied pre-determined threshold inhibition criteria in a minimum number of cell lines progressed to a second round of testing utilizing a more comprehensive 5-dose inhibition assay. The threshold inhibition criteria for progression to the 5-dose assays were selected to efficiently capture compounds with anti-proliferative activity based on historical DTP screening data.
# (§2) Concentrations for G150, IC50, TGI, and LC50 were calculated for all cell lines tested, and heat plots were prepared.
# colon cancer cell lines [3] = test system: colon cancer cell lines
# Text: as §1, §2
# CNS cancer cell lines [4] = test system: CNS cancer cell lines
# Text: as §1, §2
# colon cancer cell lines [5] = assay: NCI 60 one-dose screen; format: cell-based; details: of the 7 colon
# CNS cancer cell lines [6] = assay: cells; details: read-out: Average Concentration (M), LC50, CNS
# Text: as §1, §2
# melanoma cell lines [7] = test system: melanoma cell lines
# Text: as §1, §2
# [8] = test system: ovarian cancer cell lines; assay: cells; details: read-out: Average Concentration (M), LC50, Ovarian
# Text: as §1, §2
# melanoma cell lines [9] = assay: cells; details: read-out: Average Concentration (M), LC50, Melanoma
# Text: as §1, §2
# renal cancer cell lines [10] = test system: renal cancer cell lines
# Text: as §1, §2
# [11] = test system: breast cancer cells lines; assay: NCI 60 one-dose screen; format: cell-based; details: of the 6 breast
# [12] = test system: ovarian cancer cell lines; assay: NCI 60 one-dose screen; format: cell-based; details: of the 7 ovarian
# NCI 60 cell panel = format: cell-based; details: one-dose
# Text: A) Eight compounds were submitted to the National Cancer Institute (NCI) 60 tumor cell line drug discovery program (DTP) for anticancer screening.
# as §1
# NCI-60 cancer cell lines [13] = assay: cells
# Text: as §1, §2
# CNS cancer cell lines [14] = assay: NCI 60 one-dose screen; format: cell-based; details: of the 6 CNS
# renal cancer cell lines [15] = assay: NCI 60 one-dose screen; format: cell-based; details: of the 6 renal
# NCI-60 cancer cell lines [16] = details: five-dose
# Text: as §1, §2
# renal cancer cell lines [17] = assay: cells; details: read-out: Average Concentration (M), LC50, Renal
# Text: as §1, §2
# colon cancer cell lines [18] = assay: cells; details: read-out: Average Concentration (M), LC50, Colon
# Text: as §1, §2
# [19] = test system: non-small cell lung cancer cell lines; assay: NCI 60 one-dose screen; format: cell-based; details: of the 9 cell lines
compound,measurement,setting,value
CCCCCCCC(=O)SCC/C=C/[C@@H]1CC(=O)NCc2nc(co2)C2=N[C@@](C)(CS2)C(=O)N[C@@H](C(C)C)C(=O)O1 [compound of formula D],lethality in select melanoma cell lines,melanoma cell lines [1]; one-dose studies,> 90%
same,cell lines with some level of lethality,"melanoma cell lines [1]; one-dose, of the 9 melanoma",8
same,"Total Impacted Cell Lines (n), LC50, Ovarian",[2],1
same,"Percent of Cell Lines Impacted (%), LC50, Ovarian",[2]; five-dose,14%
same,"Total Impacted Cell Lines (n), LC50, Colon",colon cancer cell lines [3],2
same,"Percent of Cell Lines Impacted (%), LC50, Colon",colon cancer cell lines [3]; five-dose,29%
same,"Total Impacted Cell Lines (n), LC50, CNS",CNS cancer cell lines [4],1
same,"Percent of Cell Lines Impacted (%), LC50, CNS",CNS cancer cell lines [4]; five-dose,20%
same,cell lines with some level of lethality,colon cancer cell lines [5],4
same,CC50,CNS cancer cell lines [6],1.95e-05 M
same,"Total Impacted Cell Lines (n), LC50, Melanoma",melanoma cell lines [7],3
same,"Percent of Cell Lines Impacted (%), LC50, Melanoma",melanoma cell lines [7]; five-dose,38%
same,CC50,[8],2.34e-06 M
same,CC50,melanoma cell lines [9],3.72e-07 M
same,"Total Impacted Cell Lines (n), LC50, Renal",renal cancer cell lines [10],2
same,"Percent of Cell Lines Impacted (%), LC50, Renal",renal cancer cell lines [10]; five-dose,25%
same,cell lines with some level of lethality,[11],3
same,cell lines with some level of lethality,[12],4
same,percent of NCI cell lines with some level of lethality,NCI 60 cell panel; 58 cell lines tested,55%
same,NCI cell lines with some level of lethality,NCI 60 cell panel; of 58 cell lines tested,32
same,GI50,"NCI-60 cancer cell lines [13]; read-out: Average Concentration (M), GI50",3.83e-08 M
same,CC50,"NCI-60 cancer cell lines [13]; read-out: Average Concentration (M), LC50",5.48e-06 M
same,GI50,"NCI-60 cancer cell lines [13]; read-out: GI50 concentrations (M), order of magnitude",1e-08 M
same,CC50,"NCI-60 cancer cell lines [13]; read-out: LC50 concentrations, order of magnitude",1e-06 M
same,cell lines with some level of lethality,CNS cancer cell lines [14],2
same,cell lines with some level of lethality,renal cancer cell lines [15],4
same,"Percent of Cell Lines Impacted (%), GI50",NCI-60 cancer cell lines [16]; 50% Growth Inhibition,100%
same,"Percent of Cell Lines Impacted (%), LC50",NCI-60 cancer cell lines [16]; 50% Lethal Concentration reached,16%
same,"Percent of Cell Lines Impacted (%), TGI",NCI-60 cancer cell lines [16]; Total Growth Inhibition,67%
same,"Total Impacted Cell Lines (n), TGI",NCI-60 cancer cell lines [16]; Total Growth Inhibition,38
same,"Average Concentration (M), TGI",NCI-60 cancer cell lines [16]; average over impacted cell lines,4.57e-06 M
same,CC50,renal cancer cell lines [17],1.17e-05 M
same,CC50,colon cancer cell lines [18],1.47e-06 M
same,cell lines with some level of lethality,[19],7
